Entries after “also recorded” stand apart in the source; their conditions may differ.
Experiments:
Wood sorrel = assay: Foliar spray, wood sorrel; format: in vivo; conditions: 20 sprays of 1%, observed 2 days after exposure and later
Method: Wood sorrel on the ground of the greenhouse was also treated with active ingredient in order to better assess the effects of foliar treatments on multiple plant species. A patch of wood sorrel was (approximately 4′×3′) was treated with 20 sprays (mist setting) from a MAINStays ironing spray bottle. Effects of the spray were recorded 2 days after exposure.

[1] = system: Palmer Amaranth (Amaranthus palmeri); assay: Toxicity assay (probit LC50), Palmer amaranth; format: in vivo
From the text: (§1) Palmer amaranth seeds were obtained from the Department of Agronomy at Iowa State University. Individual seeds were sown for each pot (1.5″ wide×3″ deep) with approximately 7.5 g of soil for each plot. Five seeds/plot were sown into numerous plots. After one month of germination, germinated plants were counted in each plot and this number was used for the total number of plants challenged per plot in the toxicity assessment
(§2) The total number of plants were counted in each plot in 24×6 hexagonal small plot planter tray. The number of germinated seeds in each plot was enumerated after one month, and for each plot this number was recorded and used as the total for each plot. Differing concentrations of thymyloxyacetic acid was applied in 5% Triton-X 100 and 1:1 molar ratio potassium hydroxide:thymyloxyacetic acid to aid in the solubility of the compound in water. Ten mL of solution was applied to each plot, and the mortality of the plants was assessed at 3 days and 2 weeks post application (for some treatments). Mortality at these time points were enumerated out of the total plants germinated in each plot at the beginning of the assay. At both time points, the total number of dead plants and total number of plants at the beginning of the assay were recorded for each observation. A Probit model was used to calculate the LC50 values for each of the compounds explored in this assay. A formulation control (with no active ingredient) was screened against a number of plants and factored into the final probit model. This formulation control had little-to-no effect by itself.

[2] = system: Waterhemp (Amaranthus tuberculatus); assay: Toxicity assay (probit LC50), waterhemp; format: in vivo
From the text: as §1, with “Waterhemp seeds” for “Palmer amaranth seeds”, “seeds/plot was” for “seeds/plot were”, “toxicity assessment.” for “toxicity assessment”
as §2

[3] = system: Cocklebur (Xanthium spp.); assay: Toxicity assay (probit LC50), cocklebur; format: in vivo
From the text: as §1, with “Cocklebur burs” for “Palmer amaranth seeds”, “One bur/plot was” for “Five seeds/plot were”, “assessment.” for “assessment”
as §2

[4] = system: various dicot weed species; assay: Selectivity assessment, dicot weed species compared to bluegrass; format: in vivo; conditions: range over various weed species
From the text: Kentucky bluegrass seeds were purchased in a bag under the commercial name of. Individual seeds were sown for each pot (1.5″ wide×3″ deep) with approximately 7.5 g of soil for each plot. 10 seeds/plot was sown into numerous plots. After one month of germination, germinated plants were counted in each plot and this number was used for the total number of plants challenged per plot in the toxicity assessment.
as §2, with “A formulation control (with no active ingredient) was screened against a number of plants and factored into the final probit model. This formulation control had little-to-no effect by itself.” left out

corn seeds = assay: Germination assay, corn seeds coated with compound; conditions: for inhibition of corn seed germination: seed coating 1% weight compound/weight seed, 3, 5, 7 days
soybeans = assay: Germination assay, soybeans coated with compound; format: in vivo, soybean; conditions: beans coated in 1% weight compound/weight bean
From the text: Soybeans were susceptible to Aphis glycines infestation and were not determined to be a biotype that was resistant to infestation, which could confide results. Germination typically occurred between 3-5 days after moistening.

Soybean plants [5] = assay: Soil drench assay, soybean plants; format: in vivo; design: key to phytotoxicity (qualitative), soil drench: NOE: No Observable Effect; XXX: Dead; -: the lowest phytotoxic effect; --: phytotoxicity that did not result in death; ---: phytotoxicity that did not result in death; ------: the highest; conditions: for phytotoxicity (qualitative), soil drench: Soybean, 40 mL; for overall phytotoxicity to soybean plants, soil drench: 0.5%-1% formulations
Method: Soybean plants were planted under 1 cm of potting soil and watered every 2-3 days as necessary. Plants were grown in pots (6″ wide×4.5″ deep) with approximately 800 mL of soil for each plant. Seeds germinated approximately 3-5 days after being planted. Plants were grown in a greenhouse under a constant temperature and light environment (25±5° C., 12 hr: 12 hr light: dark cycle). Plants were grown until reaching 1-2 weeks old and 3-4 weeks old; these plants served as the “young” and “old” plants in this study, respectively.
Formulations of the various active ingredients were created using the monoterpenoid derivatives, potassium hydroxide, and Triton-X 100™ to aid in the solvation of the active ingredient. Formulations consisted of 0.5%-1% active ingredient by weight (0.5-1 g/100 ml water), with a 1:1 molar ratio of potassium hydroxide used to aid in the solvation (135-269 mg/100 mL for both thymyloxyacetic acid and carvacryloxyacetic acid). […] Formulations were applied to the soil next to the base of the stem of the plant to avoid foliar contact. Observations were performed 2 days and 3 weeks after soil drench to determine the effects of the treatments on the various types and stages of plants.

Corn plants = assay: Soil drench assay, corn plants; format: in vivo; design: key to phytotoxicity (qualitative), soil drench: NOE: No Observable Effect; XXX: Dead; -: the lowest phytotoxic effect; --: phytotoxicity that did not result in death; ---: phytotoxicity that did not result in death; ------: the highest; conditions: for phytotoxicity (qualitative), soil drench: Corn, 40 mL; for overall phytotoxicity to corn plants, soil drench: 0.5%-1% formulations
Method: Corn plants were planted under ½″ of potting soil and watered every 2-3 days as necessary. Plants were grown in potting plants (6″ wide×4.5″ deep) with approximately 800 mL of soil for each plant. Seeds germinated approximately 4-7 days after being planted. Plants were grown in a greenhouse under a constant temperature and light environment (25±5° C., 12 hr: 12 hr light: dark cycle). Plants were grown until reaching 1-2 weeks old and 3-4 weeks old; these plants served as the “young” and “old” plants in this study, respectively. Formulations of the various active ingredients were created using the monoterpenoid derivatives, potassium hydroxide, and Triton-X 100™ to aid in the solvation of the active ingredient. […] Formulations were applied to the soil next to the base of the stem of the plant to avoid foliar contact. Observations were performed 2 days and 3 weeks after soil drench to determine the effects of the treatments on the various types and stages of plants.

Soybean plants [6] = assay: Soil drench assay, soybean plants; format: in vivo; design: key: NOE: No Observable Effect; XXX: Dead; -: the lowest phytotoxic effect; --: phytotoxicity that did not result in death; ---: phytotoxicity that did not result in death; ------: the highest; conditions: 3-weeks after treatment, Old Plants, 7%, 40 mL
[7] = 2-days after treatment, Old Plants, 0.50%
[8] = 2-days after treatment, Old Plants, 1%
[9] = 2-days after treatment, Young Plants, 0.50%
[10] = 2-days after treatment, Young Plants, 1%
[11] = 3-weeks after treatment, Old Plants, 0.50%
[12] = 3-weeks after treatment, Young Plants, 0.50%
[13] = 3-weeks after treatment, Young Plants, 1%
[14] = 3-weeks after treatment, Old Plants, 1%

Row | Compound | inhibition of corn seed germination (corn seeds) | inhibition of soybean germination/growth (words) (soybeans) | phytotoxicity (qualitative), soil drench (Soybean plants [5]; [7]) | phytotoxicity (qualitative), soil drench (Soybean plants [5]; [8]) | phytotoxicity (qualitative), soil drench (Soybean plants [5]; [9]) | phytotoxicity (qualitative), soil drench (Soybean plants [5]; [10]) | phytotoxicity (qualitative), soil drench (Soybean plants [5]; [11]) | phytotoxicity (qualitative), soil drench (Soybean plants [5]; [12]) | phytotoxicity (qualitative), soil drench (Soybean plants [5]; [13]) | phytotoxicity (qualitative), soil drench (Corn plants; [7]) | phytotoxicity (qualitative), soil drench (Corn plants; [8]) | phytotoxicity (qualitative), soil drench (Corn plants; [9]) | phytotoxicity (qualitative), soil drench (Corn plants; [10]) | phytotoxicity (qualitative), soil drench (Corn plants; [11]) | phytotoxicity (qualitative), soil drench (Corn plants; [14]) | phytotoxicity (qualitative), soil drench (Corn plants; [12]) | phytotoxicity (qualitative), soil drench (Corn plants; [13]) | phytotoxicity (qualitative), soil drench (Soybean plants [6]) | overall phytotoxicity to soybean plants, soil drench (Soybean plants [5]) | overall phytotoxicity to corn plants, soil drench (Corn plants) | also measured
1 | O=C(O)COc1ccc(Cl)cc1Cl [2,4-D, 2,4-dichlorophenoxyacetic acid] |  |  |  |  |  |  |  |  |  |  |  |  |  |  |  |  |  |  |  |  | phytotoxic effect on wood sorrel, foliar spray (Wood sorrel): took much longer to die; phytotoxic effect on wood sorrel, foliar spray (Wood sorrel; listed as 2,4-dichloroacetic acid): plant death was not observed until much later; also recorded: uncontrolled growth and some chlorosis; LC50 Value ([1]; Palmer Amaranth (Table 6)): 1300 ppm; Selective Toxicity Compared to Bluegrass ([1]; Palmer Amaranth compared to bluegrass): 3.54; LC50 Value ([1]; Palmer Amaranth, 2-week post application, probit): 465.04 ppm; LC50 Value ([1]; Palmer Amaranth, 3-day post application, probit): 1300 ppm; phytotoxicity compared with the other compound ([1]; Palmer amaranth, 95% confidence intervals overlapped): marginally more phytotoxic than thymyloxyacetic acid; LC50 at two weeks compared with three days after application (residual character in soil) ([1]; in vivo): significantly lower LC50 value; LC50 Value ([2]; Waterhemp): 1800 ppm; Selective Toxicity Compared to Bluegrass ([2]; Waterhemp compared to bluegrass): 2.56; LC50 Value ([3]; Cocklebur): 770 ppm; Selective Toxicity Compared to Bluegrass ([3]; Cocklebur compared to bluegrass): 5.97; selectivity ratio compared to a blue grass species [4]: 2.56-5.97 fold
2 | C=CCc1ccc(OCC(=O)OC)c(OC)c1 [eugenyloxyacetic acid methyl ester] | most capable of inhibiting the growth of corn seeds |  |  |  |  |  |  |  |  |  |  |  |  |  |  |  |  |  |  |  | 
3 | C=CCc1ccc(OCC(=O)O)c(OC)c1 [eugenyloxyacetic acid, 2-(4-allyl-2-methoxyphenoxy)acetic acid] |  | prevented the growth of soybeans | - | - | - | -- | XXX | - | XXX | NOE | - | NOE | NOE | - | -- | - | -- | - |  |  | corn seed germination at day 3 (corn seeds; seed coating, day 3): some level of germination
4 | COC(=O)COc1cc(C)ccc1C(C)C [thymyloxyacetate methyl ester] |  |  | --- |  | --- |  | XXX | XXX | XXX | -- | -- | -- | -- | XXX | XXX | XXX | XXX | XXX | significantly inhibited the growth of soybeans | most phytotoxic to corn | 
5 | COc1cc(C(=O)O)ccc1OCC(=O)O [vanillic acid-oxyacetic acid, 4-(carboxymethoxy)-3-methoxybenzoic acid] | significantly inhibited by all compounds screened except for |  | NOE | NOE | NOE | NOE | NOE | NOE | NOE | NOE | NOE | NOE | NOE | NOE | NOE | NOE | NOE | NOE | did not cause phytotoxic effects | did not produce significant phytotoxic symptoms | 
6 | COc1cc(C=O)ccc1OCC(=O)O [vanillyloxyacetic acid, 2-(4-formyl-2-methoxyphenoxy)acetic acid] | significantly inhibited by all compounds screened except for | little to no inhibitory effect | NOE | NOE | NOE | NOE | NOE | NOE | NOE | NOE | NOE | NOE | NOE | NOE | NOE | NOE | NOE | NOE | did not cause phytotoxic effects | did not produce significant phytotoxic symptoms | inhibition of soybean germination/growth (words) (soybeans; listed as Vanillyloxyacetic acid): does not produce significant inhibition of plant growth

Source: patent US12213479B2, “Monoterpenoid/phenylpropanoid-containing compounds and methods of their making and use as herbicides” (KITTRICH CORPORATION, priority 2016, dated 2025)
